Data taken from patent US20230381176A1, “A PHARMACEUTICAL COMPOSITION AND USE THEREOF FOR TREATMENT OF CANCER” (Ascentage Pharma (Suzhou) Co., Ltd., priority 2020, published 2023).

Legend:
[1] = test system: PTK2 high NSCLC PDX LU-01-0604; test: s.c. PTK2 high NSCLC PDX model LU-01-0604, Compound 5 and carboplatin; assay type: in vivo, mouse
Description: (§1) A subcutaneous xenograft tumor model of human tumor immunodeficient mice was established by cell inoculation: tumor cells in logarithmic growth phase were collected, counted, resuspended in 1×PBS, and the cell suspension concentration was adjusted to 2.5-5 ×10^7/mL. The tumor cells were inoculated subcutaneously in the right side of immunodeficient mice with a 1 mL syringe ([…]), 5-10×10^6/0.2 mL/mouse. All animal experiments were strictly in accordance with the specifications for the use and management of experimental animals in GenePharma Co., Ltd. and Suzhou Ascentage Pharma Co., Ltd. The calculation of relevant parameters refers to the Chinese NMPA “Guidelines for Non-Clinical Research Techniques of Cytotoxic Anti-tumor Drugs”.
(§2) Animal body weight and tumor size were measured twice weekly during the experiment. The state of the animal and the presence or absence of death were observed every day. The growth of tumor and the effects of treatment on normal behavior of animals were monitored routinely, specifically involving experimental animal activity, feeding and drinking, weight gain or loss, eyes, clothing hair and other abnormalities. The deaths and clinical symptoms observed during the experiment were recorded in the raw data. All operations for administration and measurement of mouse body weight and tumor volume were performed in a clean bench. According to the requirements of the experimental protocol, after the end of the last administration, plasma and tumor tissues were collected, weighed and photographed. The plasma and tumor samples were frozen at −80° C. for ready-to-use.
(§3) Tumor volume (TV) is calculated as: TV=a×b^2/2, wherein a and b represent the length and width of the tumor to be measured, respectively.
(§4) The relative tumor volume (RTV) is calculated as: RTV=Vt/V1, wherein V1 is the tumor volume at the start of grouping and administration, and Vt is the tumor volume measured on the t day after administration.
The evaluation index of anti-tumor activity is the relative tumor proliferation rate T/C (%), and the calculation formula thereof is: relative tumor proliferation rate T/C (%)=(TRTV/CRTV)×100%, TRTV is the RTV of treatment group, CRTV is the RTV of solvent control group.
(§5) Change of body weight (%)=(measured body weight−body weight at the start of grouping)/body weight at the start of grouping×100%.
(§6) A dose of drug is considered to be severely toxic if the body weight of mouse is reduced by more than 20% or the number of drug-related deaths exceeds 20%.
(§7) According to the description by Clarke R., Issues in experimental design and endpoint analysis in the study of experimental cytotoxic agents in vivo in breast cancer and other models [J]. Breast Cancer Research & Treatment, 1997, 46(2-3): 255-278, synergy analysis was evaluated using the following formula: synergy factor=((A/C)×(B/C))/(AB/C); A=RTV value of drug A alone group; B=RTV value of drug B alone group; C=RTV value of the solvent control group, and AB=RTV value of the A and B combination group.
Use of mRECIST (Gao et al., 2015) measured tumor responses included stable disease (SD), partial tumor regression (PR), and complete regression (CR), determined by comparing tumor volume change at day t to its baseline: tumor volume change (%)=(Vt−V1)/V1. The BestResponse was the minimum value of tumor volume change (%) for t≥10. For each time t, the average of tumor volume changes from t=1 to t was also calculated. BestAvgResponse was defined as the minimum value of this average for t≥10. The criteria for response (mRECIST) were adapted from RECIST criteria (Gao et al., 2015; Therasse et al., 2000) and defined as follows: mCR, BestResponse<−95% and BestAvg Response<−40%; mPR, BestResponse<−50% and BestAvgResponse<−20%; mSD, BestResponse<35% and BestAvgResponse<30%; mPD, not otherwise categorized. SD, PR, and CR were considered responders and used to calculate response rate (%). […] Body weight of animals were monitored simultaneously. […]

[2] = test system: PTK2 high ovarian PDX OV1385; test: PTK2 high ovarian PDX model OV1385, Compound 5 and carboplatin and/or paclitaxel; assay type: in vivo, mouse
Description: as §1, §2, §3, §4, §5, §6, §7
Use of mRECIST (Gao et al., 2015) measured tumor responses included stable disease (SD), partial tumor regression (PR), and complete regression (CR), determined by comparing tumor volume change at day t to its baseline: tumor volume change (%)=(Vt−V1)/V1. The BestResponse was the minimum value of tumor volume change (%) for t≥10. For each time t, the average of tumor volume changes from t=1 to t was also calculated. BestAvgResponse was defined as the minimum value of this average for t≥10. The criteria for response (mRECIST) were adapted from RECIST criteria (Gao et al., 2015; Therasse et al., 2000) and defined as follows: mCR, BestResponse<−95% and BestAvg Response<−40%; mPR, BestResponse<−50% and BestAvgResponse<−20%; mSD, BestResponse<35% and BestAvgResponse<30%; mPD, not otherwise categorized. SD, PR, and CR were considered responders and used to calculate response rate (%). […] Body weight of animals were monitored simultaneously. The change in body weight was calculated based on the animal weight of the first day of dosing (day 1). Tumor volume and changes in body weight (%) were represented as the mean±standard error of the mean (SEM).

[3] = test system: A549 NSCLC xenograft; test: s.c. A549 NSCLC lung cancer model, Compound 5 and panobinostat; assay type: in vivo, mouse
[4] = test system: colon CT26 syngeneic tumor; test: s.c. syngeneic tumor model of colon CT26, Compound 5 and anti-PD-1 antibody; assay type: in vivo; conditions: for RTV on Day 12 after administration (mean ± standard error) / T/C on Day 12 after administration (%): alone or with anti-PD-1 10 mg/kg i.p. twice weekly
[5] = Compound 5 50 mg/kg orally once per day, carboplatin 30 mg/kg i.p. once per week, 29 days
[6] = Compound 5 50 mg/kg orally once per day, carboplatin 30 mg/kg i.p. once a week, paclitaxel 10 mg/kg i.v. once a week, 35 days
[7] = Compound 5 100 mg/kg orally once per day, panobinostat 3 mg/kg i.p. 5 days then 2 days break, 14 days
[8] = Compound 5 30 mg/kg orally once per day
[9] = Compound 5 100 mg/kg orally once per day

## Cc1cc(Nc2ncc(Cl)c(Nc3ccccc3S(=O)(=O)C(C)C)n2)c(OC(C)C)cc1C1=CCN(C2CCOCC2)CC1 [Compound 5, 5-chloro-N^2-(2-isopropoxy-5-methyl-4-(1-(tetrahydro-2H-pyran-4-yl)-1,2,3,6-tetrahydropyridin-4-yl)phenyl)-N^4-(2-(isopropylsulfonyl)phenyl)pyrimidine-2,4-diamine]
[1]; [5]
  RTV on Day 29 after administration (mean ± standard error): 8.25 ± 1.03
  T/C on Day 29 after administration (%): 94.50%
[1]; animals per class
  mRECIST: 2/2 PD
[1]; mouse, in vivo
  antitumor activity (conclusion in words): no antitumor activity
[2]; [6]
  RTV on Day 35 after administration (mean ± standard error): 4.10 ± 0.42
  T/C on Day 35 after administration (%): 101.49%
[2]; Day 35, animals per class
  mRECIST on Day 35 after administration: 2/2 PD
[2]; best response, animals per class
  mRECIST: 2/2 PD
[3]; [7]
  RTV on Day 14 after administration (mean ± standard error): 3.21 ± 0.46
  T/C on Day 14 after administration (%): 89.54%
[3]; mouse, in vivo
  antitumor activity (conclusion in words): minor antitumor activity
[4]; [8]
  RTV on Day 12 after administration (mean ± standard error): 29.9 ± 4.2
  T/C on Day 12 after administration (%): 102.75%
[4]; [9]
  RTV on Day 12 after administration (mean ± standard error): 22.5 ± 2.2
  T/C on Day 12 after administration (%): 77.32%
[4]; mouse, in vivo
  antitumor activity (conclusion in words): no antitumor activity
